pIC50: −log10 of the molar value. Like-named read-outs stand apart in the source and are kept apart here.
What was measured:
GluA1 = molecular target: T1, GluA1 (Rattus norvegicus, UniProt P19490); test: Whole-cell patch-clamp recording of homomeric GluA1 AMPAR expressed in HEK293T cells; type: cell-based
T1 construct: expressed in transfected cells; host or cells: HEK293T
Experimental: (§1) For the DNA preparation, the QIAGEN Plasmid Mini Kit was used to prepare up to 20 µg of high-copy plasmid DNA [30]. All AMPAR subunits utilized in this study included the flip isoform received from S. F. Heinemann (Salk Institute, La Jolla, CA, USA) and sub-cloned in pRK for expression in Human Embryonic Kidney Cells 293 (HEK293T). The human embryonic kidney (HEK293T) cells were obtained from Sigma, Taufkirchen, Germany, and we only used the HEK293T cell line due to their ease of growth and transfection and wide utilization in cell culture. For the transfection, we used the constructs GluA1, GluA2, GluA2/3, and GluA1/2, along with the GFP-expressing construct, as described in our previous work. The transfection reagents utilized were jetPRIME (Polyplus: New York, NY, USA) or Lipofectamine 2000 (Invitrogen; San Diego, CA, USA). The highly fluorescent cells were identified and selected for recording. The selected cells were seeded in Dulbecco Modified Eagle Medium (DMEM) (Sigma, Roedermark, Germany) containing 10% FBS, 0.1 mg/mL streptomycin, and 1 mM sodium pyruvate (Biological Industries; Beit-Haemek, Israel). The cells were incubated at 37 °C with 5% CO2 added to the medium and subcultured twice a week until they reached passage #20. Following a day and a half, the cells were replated on coverslips covered with Laminin (1 mg/mL; Sigma, Roedermark, Germany) for electrophysiological recordings. Our previous work has detailed the DNA preparation, cDNA transient transfection, and cell culture of HEK293T [30, 31, 32, 33].
(§2) After that, a patch was placed in front of a rapid perfusion system comprised of a theta tube flow pipe mounted on a piezoelectric translator that was used to wash the cell continuously from one barrel while the other supplied the compound of interest to the cell. Recordings were conducted 36–48 h after transfection at 22 °C, with a membrane potential of −60 mV. Currents were amplified using an integrated patch amplifier (IPA, Sutter Instruments, Novato, CA, USA), filtered at 2 kHz, and digitized at 10 kHz using SutterPatch Software v. 1.1.1 [46]. […] The extracellular medium contained (in mM): 150 NaCl, 2.8 KCl, 0.5 MgCl2, 2 CaCl2, and 10 HEPES, pH 7.4 adjusted with NaOH. The holding potential was typically −60 mV. The sample size was determined to be eight viable cells to calculate the mean inhibition of the derivative of interest. The solution exchange time (10–90% to peak) was estimated at […] using open-tip control at the end of a recording. Inhibition was calculated by comparing the current observed when the cell was supplied with glutamate alone and when the same cell was supplied with both glutamate and the 2,3-BDZ compounds. The initial tube containing only glutamate was reintroduced to the cell to ensure cellular safety and authenticate the antagonist’s findings. This step ensured that the glutamate-induced current observed before the administration of the antagonist was nearly indistinguishable from the current observed after administration.
(§3) The experiment served two purposes: first, determining the whole-cell current amplitude ratio in the absence and presence of the compounds (A/AI) to derive a constant inhibitory value independent of the rate measurement. Second, as an independent control method, a fast exchange solution flow methodology was employed using piezoelectric actuators, providing the fastest exchange solution with open-tip current rise times in the 100–300 μs range to assess the amplitude of the whole-cell current. Detailed data analysis of this process is provided in the supporting information (Tables S1–S4).
(§4) The data acquired were analyzed using Igor Pro7 (Wave Metrics, Inc., Portland, OR, USA). Receptor desensitization (τw des) and deactivation rates were estimated by fitting the current decay starting from 95% of the peak to the baseline current using a double exponential formulation. […]

GluA1/2 = molecular target: T2, GluA1/2 (Rattus norvegicus, UniProt P19490+P19491); test: Whole-cell patch-clamp recording of heteromeric GluA1/2 AMPAR expressed in HEK293T cells; type: cell-based
T2 construct: expressed in transfected cells; host or cells: HEK293T
T2 sequence (P19490 19-907 isoform P19490-2 limits assumed): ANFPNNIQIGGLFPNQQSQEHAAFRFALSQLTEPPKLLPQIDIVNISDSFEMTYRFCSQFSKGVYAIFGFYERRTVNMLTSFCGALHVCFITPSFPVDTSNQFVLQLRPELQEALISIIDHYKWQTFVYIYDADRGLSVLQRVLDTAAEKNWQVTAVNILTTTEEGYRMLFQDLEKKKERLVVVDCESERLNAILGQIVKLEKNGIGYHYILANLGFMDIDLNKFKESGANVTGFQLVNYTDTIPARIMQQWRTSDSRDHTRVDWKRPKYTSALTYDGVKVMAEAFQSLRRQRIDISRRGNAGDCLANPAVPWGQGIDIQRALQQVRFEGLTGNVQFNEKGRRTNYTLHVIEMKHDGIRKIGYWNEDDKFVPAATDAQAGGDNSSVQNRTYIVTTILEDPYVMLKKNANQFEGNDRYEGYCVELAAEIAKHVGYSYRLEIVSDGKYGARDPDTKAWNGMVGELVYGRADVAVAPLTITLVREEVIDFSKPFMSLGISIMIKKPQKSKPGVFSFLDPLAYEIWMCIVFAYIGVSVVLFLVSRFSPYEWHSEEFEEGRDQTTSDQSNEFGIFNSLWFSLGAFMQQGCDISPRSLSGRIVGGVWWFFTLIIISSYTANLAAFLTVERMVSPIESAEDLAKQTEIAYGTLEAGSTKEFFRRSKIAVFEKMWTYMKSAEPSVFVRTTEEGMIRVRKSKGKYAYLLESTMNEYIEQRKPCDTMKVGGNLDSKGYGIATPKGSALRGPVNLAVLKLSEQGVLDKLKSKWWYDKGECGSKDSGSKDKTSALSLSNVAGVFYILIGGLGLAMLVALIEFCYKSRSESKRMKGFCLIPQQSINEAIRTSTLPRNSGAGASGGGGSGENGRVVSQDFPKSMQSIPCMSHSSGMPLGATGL
T2 sequence (P19491 22-883 isoform P19491-2 limits assumed): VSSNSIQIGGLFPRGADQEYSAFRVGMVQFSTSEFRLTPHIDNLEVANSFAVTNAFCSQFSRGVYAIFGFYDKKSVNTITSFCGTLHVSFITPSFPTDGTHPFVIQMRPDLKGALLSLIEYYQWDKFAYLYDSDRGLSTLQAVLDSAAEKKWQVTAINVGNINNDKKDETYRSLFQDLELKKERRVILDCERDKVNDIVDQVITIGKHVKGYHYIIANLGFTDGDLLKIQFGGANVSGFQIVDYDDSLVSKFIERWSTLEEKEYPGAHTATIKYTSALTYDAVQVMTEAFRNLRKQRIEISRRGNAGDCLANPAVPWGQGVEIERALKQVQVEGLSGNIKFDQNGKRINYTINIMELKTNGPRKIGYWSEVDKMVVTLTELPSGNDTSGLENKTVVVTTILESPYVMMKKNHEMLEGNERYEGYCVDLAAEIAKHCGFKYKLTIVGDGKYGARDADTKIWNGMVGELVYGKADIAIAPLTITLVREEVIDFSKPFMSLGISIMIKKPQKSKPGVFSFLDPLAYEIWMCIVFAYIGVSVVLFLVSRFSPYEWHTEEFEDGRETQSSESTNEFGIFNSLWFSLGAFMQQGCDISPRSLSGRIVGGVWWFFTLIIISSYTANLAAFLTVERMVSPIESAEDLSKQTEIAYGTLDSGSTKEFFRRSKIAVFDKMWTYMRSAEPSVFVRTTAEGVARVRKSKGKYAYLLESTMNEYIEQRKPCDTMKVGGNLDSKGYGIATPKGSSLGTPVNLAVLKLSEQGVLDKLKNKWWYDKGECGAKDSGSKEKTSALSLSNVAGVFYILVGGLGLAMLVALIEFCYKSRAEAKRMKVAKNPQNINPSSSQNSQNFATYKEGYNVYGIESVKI
Experimental: as §1, §2, §3, §4

GluA2 = molecular target: T3, GluA2 (Rattus norvegicus, UniProt P19491); test: Whole-cell patch-clamp recording of homomeric GluA2 AMPAR expressed in HEK293T cells; type: cell-based
T3 construct: expressed in transfected cells; host or cells: HEK293T
T3 sequence (P19491 22-883 isoform P19491-2 limits assumed): as above
Experimental: as §1, §2, §3, §4

GluA2/3 = molecular target: T4, GluA2/3 (Rattus norvegicus, UniProt P19491+P19492); test: Whole-cell patch-clamp recording of heteromeric GluA2/3 AMPAR expressed in HEK293T cells; type: cell-based
T4 construct: expressed in transfected cells; host or cells: HEK293T
T4 sequence (P19491 22-883 isoform P19491-2 limits assumed): as above
T4 sequence (P19492 23-888 isoform P19492-2 limits assumed): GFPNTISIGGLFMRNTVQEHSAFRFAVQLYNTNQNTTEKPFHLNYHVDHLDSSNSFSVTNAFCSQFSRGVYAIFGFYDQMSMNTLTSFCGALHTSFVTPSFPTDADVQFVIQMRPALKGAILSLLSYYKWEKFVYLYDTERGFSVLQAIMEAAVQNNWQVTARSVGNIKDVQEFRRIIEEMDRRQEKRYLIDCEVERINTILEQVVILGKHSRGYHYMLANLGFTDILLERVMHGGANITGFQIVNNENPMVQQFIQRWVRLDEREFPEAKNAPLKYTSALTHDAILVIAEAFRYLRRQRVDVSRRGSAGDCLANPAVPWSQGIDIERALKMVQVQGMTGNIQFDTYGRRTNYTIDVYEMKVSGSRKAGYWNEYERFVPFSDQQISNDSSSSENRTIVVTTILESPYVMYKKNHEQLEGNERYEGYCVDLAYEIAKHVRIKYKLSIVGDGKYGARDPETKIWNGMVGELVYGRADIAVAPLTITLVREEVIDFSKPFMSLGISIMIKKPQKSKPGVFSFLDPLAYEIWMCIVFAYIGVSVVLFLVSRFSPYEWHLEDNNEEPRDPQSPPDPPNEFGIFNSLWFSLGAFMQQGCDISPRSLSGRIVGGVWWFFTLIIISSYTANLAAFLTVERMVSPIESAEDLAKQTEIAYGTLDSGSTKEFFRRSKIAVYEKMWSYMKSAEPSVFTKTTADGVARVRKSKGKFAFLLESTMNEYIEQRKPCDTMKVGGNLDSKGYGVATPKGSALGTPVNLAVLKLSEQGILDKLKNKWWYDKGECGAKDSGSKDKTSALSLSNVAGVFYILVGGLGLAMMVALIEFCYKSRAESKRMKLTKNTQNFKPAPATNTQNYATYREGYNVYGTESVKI
Experimental: as §1, §2, §3, §4

AMPA receptor subunits = test: Whole-cell patch-clamp recording, statements over all tested AMPAR subunits (GluA1, GluA1/2, GluA2, GluA2/3) in HEK293T cells; type: cell-based; settings: 16 µM compound
Experimental: as §1, §2, §3, §4

[1] = Solubility observation during synthesis/characterisation; type: physicochemical; settings: qualitative, NMR in DMSO-d6 could not be run
Experimental: The synthesis of target compounds is carried out according to the sequence of reactions detailed in Scheme 1. SnCl4-catalyzed Friedel-Craft acylation of ethyl 3,4-methylenedioxy phenylacetate 1 with either 2-fluoro-4-nitrobezoylchloride 2a or 3-methoxy-4-nitrobenzoyl chloride 2b in dry CH2Cl2 yields the required ketoester intermediates 3a and 3b in 40% and 48% yields, respectively. […] Acetic acid promoted a cascade reaction (imine formation followed by cyclization) of ethyl 4,5-(methylenedioxy)-2-[…] with hydrazine hydrate in ethanol afforded 2,3-BZD-4 in a 33% yield. High yield and purity of 2,3-BZD-1 were achieved via Pd-catalyzed hydrogenation of the nitro group in 2,3-BZD-4 in methanol. The generated compounds have physical and spectral (1H-NMR) data consistent with their proposed structures.
5% Pd/C (50 mg) was added to a solution containing 1-(2-floro-4-nitrophenyl)-7,8-(methylenedioxy)-3,5-dihydro-4H-2,3-benzodiazepin-4-one (2,3-BDZ-3) (64.80 mg, 0.19 mmol) in methanol (5 mL) and formic acid (2 mL). After 48 h of stirring at ambient temperature in a hydrogen atmosphere, the Pd/C was filtered out, and the solvent was removed under pressure. The resultant residue was washed with methanol and then with diethyl ether. […]

[2] = 16 µM compound, 500 ms glutamate
[3] = 10 mM glutamate + 16 µM compound, -60 mV, pH 7.4, 22 °C, mean±SEM, n=8
[4] = 10 mM glutamate, 16 µM compound, n=8
[5] = 1 ms 10 mM glutamate + 16 µM compound, n=8
[6] = 500 ms 10 mM glutamate + 16 µM compound, n=8
[7] = log of IC50, read-out: Log IC50 (converted)
[8] = normalized peak current, -60 mV, pH 7.4, 22 °C, read-out: IC50
[9] = washout/recovery, glutamate alone after compound, n=8

T1 sequence (P19490 19-907 isoform P19490-2 limits assumed): as the sequence (P19490 19-907 isoform P19490-2 limits assumed) above

## Nc1ccc(C2=NNC(=O)Cc3cc4c(cc32)OCO4)c(F)c1 [2,3-BDZ-1, 1-(4-Amino-2-fluorophenyl)-7,8-(methylenedioxy)-3,5-dihydro-4H-2,3-benzodiazepin-4-one]
GluA1; [2]
  Reduction of desensitization rate: ~2 fold
GluA1; [3]
  Amplitude with compound: 85±7.0 pA
GluA1; [4]
  A/AI (current amplitude ratio without/with compound): 11.08±1.0
GluA1; [5]
  t deact (weighted deactivation time constant): 6.3 ± 0.4 ms
GluA1; [6]
  t des (weighted desensitization time constant): 1.1 ± 0.1 ms
GluA1; [7]
  IC50: 3.24 µM
GluA1; [8]
  pIC50: 5.49
GluA1; [9]
  Amplitude, applying glutamate alone after compound: 935±39 pA
GluA1/2; [2]
  Reduction of desensitization rate: ~2 fold
GluA1/2; [3]
  Amplitude with compound: 51±7.0 pA
GluA1/2; [4]
  A/AI (current amplitude ratio without/with compound): 11.21±1.0
GluA1/2; [5]
  t deact (weighted deactivation time constant): 6.7 ± 0.6 ms
GluA1/2; [6]
  t des (weighted desensitization time constant): 2.7 ± 0.2 ms
GluA1/2; [7]
  IC50: 3.02 µM
GluA1/2; [8]
  pIC50: 5.52
GluA1/2; [9]
  Amplitude, applying glutamate alone after compound: 575±35 pA
GluA2; [2]
  Reduction of desensitization rate: 4–5 fold
GluA2; [3]
  Amplitude with compound: 108±9.0 pA
GluA2; [4]
  A/AI (current amplitude ratio without/with compound): 12.31±1.0
GluA2; [5]
  t deact (weighted deactivation time constant): 8.7 ± 0.6 ms
GluA2; [6]
  t des (weighted desensitization time constant): 0.6 ± 0.05 ms
GluA2; [7]
  IC50: 3.02 µM
GluA2; [8]
  pIC50: 5.52
GluA2; [9]
  Amplitude, applying glutamate alone after compound: 1322±33 pA
GluA2/3; [2]
  Reduction of desensitization rate: 3–4 fold
GluA2/3; [3]
  Amplitude with compound: 49±4 pA
GluA2/3; [4]
  A/AI (current amplitude ratio without/with compound): 12.09±1.0
GluA2/3; [5]
  t deact (weighted deactivation time constant): 8.1 ± 0.7 ms
GluA2/3; [6]
  t des (weighted desensitization time constant): 0.8 ± 0.08 ms
GluA2/3; [7]
  IC50: 3.09 µM
GluA2/3; [8]
  pIC50: 5.51
GluA2/3; [9]
  Amplitude, applying glutamate alone after compound: 589±33 pA
AMPA receptor subunits
  Reduction in AMPAR subunit currents: 11–12 fold
AMPA receptor subunits; 1 ms glutamate
  Effect on deactivation rate of the AMPAR subunits examined: almost triples
[1]
  Solubility (observation): low solubility
[1]; listed as 2,3-BZD-1
  Solubility (observation): highly insoluble
